According to patent US6376491B1, “Bicyclic compounds” (Basilea Pharmaceutica AG, priority 1998, dated 2002):
Values after ≈ are worked out from the molar mass of the structure shown.

Key:
[1] = test system: Cryptococcus neoformans (Cr. neoformans) cells (strain MTU13001); experiment: In vitro antifungal activity, broth micro-dilution, turbidity at 600 nm; type: cell-based; conditions: YNBPB medium, 35° C., 24 hours, OD600; for IC50: Cryptococcus neoformans, read-out: Inhibition against in vitro cell growth, Cr. neoformans (MTU13001) IC50
Method: In vitro antifungal activity of the bicyclic compounds was determined using the Cryptococcus neoformans (Cr. neoformans) cells (strain MTU13001) according to the broth micro-dilution procedure (National Committee for Clinical Laboratory Standard (1992). Document M27-P). 10^4 cells in […] of YNBPB medium (YNB (Difco), 1% (w/v) dextrose (Wako), 0.25% K2HPO4 (Wako)) containing various concentrations of compounds were dispensed in 96-well plates and incubated at 35° C. for 24 hours. The turbidity of the cell suspension was measured using a Microplate leader (WL320, Bio-Tek Instrument) at 600 nm. Antifungal activity of each compound was indicated as 50% inhibition concentration (IC50) values that was determined by calculation the minimum concentration of the compound required for the 50% reduction of the turbidity (OD600) of cells compared to untreated control cells.

[2] = Acute toxicity (LD50) by intravenous administration in mice; conditions: mouse, in vivo
Text: The acute toxicity (LD50) of the representative bicycle compound (Example 42) of the present invention was examined by intravenous administration in mice.

Row | SMILES | IC50 [1] | Inhibition against in vitro cell growth, Cr. neoformans (MTU13001) IC50 [1] | LD50 [2]
1 | CCOC(=O)c1oc2cccc(OCCCNC3CCN(Cc4ccccc4)CC3)c2c1C [Example 100, 4-(3-(1-Benzyl-piperidin-4-ylamino)-propoxy)-3-methyl-benzofuran-2-carboxylic Acid Ethyl Ester] | 2.1 µg/mL (≈ 4.66 µM) | – | –
2 | Cc1c(COc2ccc3oc(C(C)(C)O)cc3c2)oc2cccc(OCCCNCc3cccnc3)c12 [Example 44-2, 2-[5-(3-methyl-4-{3-[(pyridin-3-ylmethyl)-amino]-propoxy}-benzofuran-2-ylmethoxy)-benzofuran-2-yl]-propan-2-ol] | 6.1 µg/mL (≈ 12.2 µM) | – | –
3 | Cc1c(C(=O)NCCc2ccccc2)oc2cccc(OCCCNC3CCN(Cc4ccccc4)CC3)c12 [Example 112, 4-[3-(1-Benzyl-piperidin-4-ylamino)-propoxy]-3-methyl-benzofuran-2-carboxylic Acid Phenethyl-amide] | 3.1 µg/mL (≈ 5.9 µM) | – | –
4 | Cc1c(COc2ccc(C#N)cc2)oc2cccc(OCCCNCc3cccnc3)c12 [Example 32, 4-(3-Methyl-4-{3-[(pyridin-3-ylmethyl)-amino]-propoxy}-benzofuran-2-ylmethoxy)-benzonitrile] | 69 µg/mL (≈ 161 µM) | – | –
5 | CCOC(=O)c1oc2cccc(OCCCNCc3ccc(N(C)C)cc3)c2c1C [Example 99, 4-(3-(4-Dimethylamino-benzylamino)-propoxy)-3-methyl-benzofuran-2-carboxylic Acid Ethyl Ester] | 1.9 µg/mL (≈ 4.63 µM) | – | –
6 | Cc1c(CSCCc2ccccc2)oc2cccc(OCCCNC(C)C)c12 [Example 55, Isopropyl-[3-(3-methyl-2-phenethylsulfanylmethyl-benzofuran-4-yloxy)-propyl]-amine] | 1.8 µg/mL (≈ 4.53 µM) | – | –
7 | Cc1c(C2=NC(C(=O)N3CCN(C)CC3)C(CC3CCCCC3)O2)oc2cccc(OCCCNCc3cccnc3)c12 (racemic) [Example 88, dl-[5-Cyclohexylmethyl-2-(3-methyl-4-{3-[(pyridin-3-ylmethyl)-amino]-propoxy}-benzofuran-2-yl)-trans-4,5-dihydro-oxazol-4-yl]-(4-methyl-piperazin-1-yl)-methanone] | – | 5.3 µg/mL | –
8 | Cc1c(COc2cccnc2)oc2cccc(OCCCNCc3cccnc3)c12 [Example 31, {3-[3-Methyl-2-(pyridin-3-yloxymethyl)-benzofuran-4-yloxy]-propyl}-pyridin-3-ylmethyl-amine] | 19 µg/mL (≈ 47.1 µM) | – | –
9 | Cc1c(COc2ccc(F)cc2F)oc2cccc(OCCCNCc3cccnc3)c12 [Example 12, {3-[2-(2,4-Difluorophenoxymethyl)-3-methyl-benzofuran-4-yloxy]-propyl}-pyridin-3-ylmethyl-amine] | 4.4 µg/mL (≈ 10 µM) | – | –
10 | CCOCc1oc2cccc(OCCCNCc3cccnc3)c2c1C [Example 52, [3-(2-Ethoxymethyl-3-methyl-benzofuran-4-yloxy)-propyl]-pyridin-3-ylmethyl-amine] | 2.6 µg/mL (≈ 7.34 µM) | – | –
11 | CCOCc1cc2cc(OCc3oc4cccc(OCCCNCc5cccnc5)c4c3C)ccc2o1 [Example 42, [3-[2-(2-Ethoxymethyl-benzofuran-5-yloxymethyl)-3-methyl-benzofuran-4-yloxy]-propyl]-pyridin-3-ylmethyl-amine] | 2.5 µg/mL (≈ 4.99 µM) | – | > 50 mg/kg
12 | CCOC(=O)c1ccc(NC(=O)c2oc3cccc(OCCCNC(C)(C)C)c3c2C)cc1 [Example 64, 4-[[4-(3-tert-Butylamino-propoxy)-3-methyl-benzofuran-2-carbonyl]-amino]-benzoic Acid Ethyl Ester] | 2.1 µg/mL (≈ 4.64 µM) | – | –
13 | Cc1c(COc2ccc(F)c(F)c2F)oc2cccc(OCCCNCc3cccnc3)c12 [Example 21, {3-[2-(2,3,4-Trifluorophenoxymethyl)-3-methyl-benzofuran-4-yloxy]-propyl}-pyridin-3-ylmethyl-amine] | 5.8 µg/mL (≈ 12.7 µM) | – | –
14 | Cc1c(C(=O)Nc2ccc(N3CCOCC3)cc2)oc2cccc(OCCCNCc3cccnc3)c12 [Example 69, 3-Methyl-4-{3-[(pyridin-3-ylmethyl)-amino]-propoxy}-benzofuran-2-carboxylic Acid (4-morpholin-4-yl-phenyl)-amide] | 57 µg/mL (≈ 114 µM) | – | –
